In ChEMBL document CHEMBL1145004, “3-(4-[[Benzyl(methyl)amino]methyl]phenyl)-6,7-dimethoxy-2H-2-chromenone (AP2238) inhibits both acetylcholinesterase and acetylcholinesterase-induced beta-amyloid aggregation: a dual function lead for Alzheimer's disease therapy” (J Med Chem, 2003) one finds IC50 and Ki data, which are given here for one compound.

One assay deals with Acetylcholinesterase (Homo sapiens, UniProt P22303). Kind of assay: Inhibitory potency was evaluated against recombinant human AChE.
The target in the next assay is Cholinesterase (Homo sapiens, UniProt P06276). Kind of assay: Inhibitory potency was evaluated against isolated Butyrylcholinesterase.
Sequence of Cholinesterase (P06276 whole entry): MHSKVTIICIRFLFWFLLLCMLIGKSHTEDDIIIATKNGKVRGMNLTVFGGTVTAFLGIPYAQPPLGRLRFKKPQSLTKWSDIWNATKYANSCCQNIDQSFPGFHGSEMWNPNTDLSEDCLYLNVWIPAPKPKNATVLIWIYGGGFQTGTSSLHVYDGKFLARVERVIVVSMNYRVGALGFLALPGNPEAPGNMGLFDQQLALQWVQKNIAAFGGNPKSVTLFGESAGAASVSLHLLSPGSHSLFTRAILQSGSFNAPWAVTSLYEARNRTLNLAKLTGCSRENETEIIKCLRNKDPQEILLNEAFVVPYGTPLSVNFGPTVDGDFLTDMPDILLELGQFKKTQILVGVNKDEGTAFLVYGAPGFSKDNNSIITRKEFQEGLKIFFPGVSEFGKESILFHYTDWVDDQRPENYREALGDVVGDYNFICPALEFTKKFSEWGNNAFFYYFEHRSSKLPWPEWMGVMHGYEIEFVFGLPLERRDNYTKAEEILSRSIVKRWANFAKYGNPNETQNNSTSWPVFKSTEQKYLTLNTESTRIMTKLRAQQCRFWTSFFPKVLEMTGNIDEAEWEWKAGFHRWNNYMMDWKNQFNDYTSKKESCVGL

Sequence of Acetylcholinesterase (P22303 whole entry): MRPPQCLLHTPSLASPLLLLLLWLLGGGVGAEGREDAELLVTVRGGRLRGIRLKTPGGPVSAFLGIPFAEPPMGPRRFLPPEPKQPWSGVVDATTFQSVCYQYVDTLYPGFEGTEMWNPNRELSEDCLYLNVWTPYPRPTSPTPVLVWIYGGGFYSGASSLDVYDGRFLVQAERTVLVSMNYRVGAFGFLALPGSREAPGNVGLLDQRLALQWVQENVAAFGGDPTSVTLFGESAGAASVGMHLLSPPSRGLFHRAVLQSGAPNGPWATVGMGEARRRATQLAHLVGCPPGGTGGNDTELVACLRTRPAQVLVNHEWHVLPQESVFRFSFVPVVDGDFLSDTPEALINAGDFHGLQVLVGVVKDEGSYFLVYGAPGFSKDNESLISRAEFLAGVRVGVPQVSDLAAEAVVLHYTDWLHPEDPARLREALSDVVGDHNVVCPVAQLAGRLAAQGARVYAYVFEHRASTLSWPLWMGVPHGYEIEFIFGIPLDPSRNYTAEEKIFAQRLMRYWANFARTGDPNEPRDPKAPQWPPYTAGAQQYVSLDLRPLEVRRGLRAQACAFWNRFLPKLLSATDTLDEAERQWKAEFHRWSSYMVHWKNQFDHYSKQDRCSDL

Consider `COc1cc2cc(-c3ccc(CN(C)Cc4ccccc4)cc3)c(=O)oc2cc1OC`, for which the IC50 – broadly, the concentration that gives 50% inhibition – at Acetylcholinesterase was 44.5 nM; against Cholinesterase it was 48900 nM. In addition, on Acetylcholinesterase, the Ki – broadly, the dissociation constant of the complex between target and ligand, obtained from inhibition or displacement – was found to be 21.7 nM.
